According to patent US20170348337A1, “MULTIFUNCTIONAL MEMBRANE-ACTIVE AMINOGLYCOSIDE-PEPTIDE CONJUGATES” (priority 2014, published 2017):
≈ marks a conversion by molar mass, not a printed value. Entries after “also recorded” stand apart in the source; their conditions may differ. Where two headings read alike, the source gives them in different places.

Experiments:
E. coli = assay: microbe, parasite or virus in culture; assay type: cell-based; settings: Escherichia coli
Source text: (§1) Pentobra was screened against a broad panel of microbial pathogens, including strains of E. coli, MRSA, Klebsiella (Kleb), Acinetobacter (AcB), Vancomycin-Sensitive Enterococci (VSE) and Vancomycin-Resistant Enterococci (VRE), and specifically including E. faecalis samples. […] The experimenter reported the minimum inhibitory concentration (MIC) in mass units per unit volume (μg/mL) for each compound, and MIC data were converted into molar concentrations (μM) due to the large difference between the molecular weight of tobramycin (467.5 g/mol) and Pentobra (2277 g/mol).

Klebsiella (Kleb) = assay: microbe, parasite or virus in culture; assay type: cell-based; settings: Klebsiella; isolate Kleb, W6921701-1; read-out: MIC
Source text: as §1

MRSA = assay: microbe, parasite or virus in culture; assay type: cell-based; settings: isolate MRSA
Source text: as §1

[1] = tested on: Vancomycin-Resistant Enterococci (VRE); assay: microbe, parasite or virus in culture; assay type: cell-based; settings: Enterococcus, read-out: MIC
Source text: as §1

Acinetobacter (AcB) = assay: microbe, parasite or virus in culture; assay type: cell-based; settings: Acinetobacter; isolate AcB, PM1434; read-out: MIC
Source text: as §1

[2] = synchrotron small angle X-ray scattering (SAXS) of model membranes; settings: DOPE/DOPS=80/20; Pentobra to lipid 1/80; tobramycin to lipid 1/20 or 1/40
Protocol: Briefly, DOPE and DOPS lyophilized lipids from Avanti Polar lipids were used without further purification. SUVs were prepared by sonication. Stock solutions of DOPE and DOPS were prepared in chloroform at ˜20 mg/g. Mixtures of these lipids were prepared at molar ratios, so DOPE/DOPS=80/20 corresponded to a 4:1 lipid ratio. Chloroform was evaporated under N2, and the mixtures were dried further by overnight desiccation under vacuum. The dried lipids were resuspended the next day in 100 mM NaCl. Solutions were incubated at 37° C. for 18 h and then sonicated until clear. SUVs were obtained by extrusion (0.2 μm pore Nucleopore filter).
Pentobra and tobramycin stock solutions were prepared by dissolving the molecules in 100 mM NaCl. Lipids were thoroughly mixed with Pentobra/tobramycin at specific molecule to lipid ratios (P/L) in 100 mM NaCl. Sample solutions were hermetically sealed in quartz-glass capillaries (Hilgenberg GmbH, Mark-tubes, code no: 4017515). Synchrotron SAXS experiments were conducted at the Stanford Synchrotron Radiation Laboratory (BL 4-2). Monochromatic X-rays with 9 keV energy were used. Scattering was collected using a Rayonix MX225-HE detector (pixel size 73.2 μm). Samples were also measured at the California NanoSystems Institute (CNSI) at UCLA. […] Identical samples were prepared and measured at different times and multiple sources to ensure consistency between samples. […]

[3] = tested on: MCP-1, MDC, IP-10 and IL-12p40 in human monocytes; assay: chemokine/cytokine gene expression in P. acnes-stimulated monocytes (real-time PCR); assay type: cell-based; settings: 24 hrs co-treatment
Protocol: Peripheral blood mononuclear cells (PBMCs) were isolated from whole blood of normal healthy donors as approved by the Institutional Review Board at UCLA using Ficoll-Paque gradients (GE Healthcare, Piscataway, N.J.) and plated onto six-well tissue culture plates (20×10^6-30×10^6 per well) for 2 hours in RPMI 1640 medium (Invitrogen Life Technologies, Carlsbad, Calif.) supplemented with 1% fetal calf serum (Omega Scientific, Tarzana, Calif.). Nonadherent cells were removed by rigorously washing three times with RPMI. Adherent monocytes were stimulated (co-treated) with media or P. acnes in the presence of tobramycin or Pentobra in 10% fetal calf serum. P. acnes was used at an MOI of 0.5 and cells were cultured for 24 hours at 37° C.
Monocytes were stimulated with media or P. acnes in the presence of tobramycin or Pentobra. Total RNA was isolated using Trizol reagent (Invitrogen, Carlsbad, Calif.) following manufacturer's protocol and treated with RNase-free DNase. RNA concentration and quality were determined by spectrophotometry. RNA samples were reverse-transcribed to cDNA using iScript cDNA synthesis kit (Bio-Rad, Hercules, Calif.). Reactions were done at 25° C. for 5 minutes, 42° C. for 30 minutes and 85° C. for 5 minutes. Real-time PCR was applied using iQ SYBR Green supermix (Bio-Rad). Forty cycles were carried out at 95° C. for 5 minutes, then 95° C. for 10 seconds, 55° C. for 20 seconds, 72° C. for 20 seconds. GAPDH was used as a control. Gene expression level was quantified by the comparative method 2-ΔΔCT.
Monocytes were cultured and evaluated for cytokine and chemokine expression by ELISA and real time PCR after 24 hrs.

Work on `NC[C@H]1O[C@H](O[C@H]2[C@H](O)[C@@H](O[C@H]3O[C@H](CO)[C@@H](O)[C@H](N)[C@H]3O)[C@H](N)C[C@@H]2N)[C@H](N)C[C@@H]1O` [tobramycin] yielded an MIC (E. coli; ATCC25922, isolate ATCC 25922, Ecoli (second entry), read-out: MIC) of 2 µM (≈ 0.935 µg/mL), an MIC (E. coli; isolate ATCC Ecoli, 25922 (first entry)) of 2 µM (≈ 0.935 µg/mL) and an MIC (E. coli; isolate Ecoli,YD461, read-out: MIC) of 34 µM (≈ 15.9 µg/mL). For the same compound, the MIC (Klebsiella (Kleb)) was 68 µM (≈ 31.8 µg/mL), the MIC (MRSA; Staphylococcus aureus, F2806774, read-out: MIC) was > 274 µM and the MIC (MRSA; H2867813) was >274 µM. For the same compound, the MIC ([1]; VRE, isolate F6541102, VRE) was > 274 µM, the MIC ([1]; VRE, isolate H6926031, VRE*) was 68 µM (≈ 31.8 µg/mL) and the MIC ([1]; VRE, isolate M6865034, VRE) was > 274 µM. The MIC ([1]; VRE, isolate S3899836, VRE^? (second entry)) was > 274 µM, the MIC ([1]; VRE, isolate VRE, 24670) was > 274 µM and the MIC ([1]; VRE, isolate VRE, S3899836) was > 274 µM. For the same compound, the MIC ([1]; isolate 24670, VRE^? (second entry)) was > 274 µM, the MIC (Acinetobacter (AcB)) was 34 µM (≈ 15.9 µg/mL) and the “induced membrane curvature / phase (negative Gaussian curvature, NGC)” value [2] was “induced NGC was not observed; also recorded: did not induce NGC or negative mean curvature”. For the same compound, the “inhibition of IL-12p40 gene expression” value [3] was “little to no inhibition”, the “inhibition of MCP-1 expression, comparison of the antibiotics” value [3] was “more effective” and the “P. acnes-induced IP-10 expression” value ([3]; p<0.001) was “completely abrogated”.
